In US20260035359A1, “HERBICIDAL IMIDAZOLE COMPOUNDS” (SYNGENTA CROP PROTECTION AG, priority 2022, published 2026):

Tests used:
Type in all cases: in vivo
[1] = test system: Amaranthus retoflexus (AMARE); test: Pre-emergence herbicidal glasshouse test; conditions: 250 g/ha, sprayed after one day cultivation, evaluated after 13 days
Outline: (§1)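 Seeds sown in pots are grown under controlled glasshouse conditions (24/16° C day/night, 14 hours light, 65% humidity). After 1 day (pre) or 8 days (post), plants are sprayed at 250 g/ha unless otherwise stated. Damage is rated 13 days later on a five-point scale.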

[2] = test system: Setaria faberi (SETFA); test: Pre-emergence herbicidal glasshouse test; conditions: 250 g/ha, sprayed after one day cultivation, evaluated after 13 days
Outline: as §1

[3] = test system: Ipomoea hederacea (IPOHE); test: Pre-emergence herbicidal glasshouse test; conditions: 250 g/ha, sprayed after one day cultivation, evaluated after 13 days
Outline: as §1

[4] = test system: Echinochloa crus-gali (ECHCG); test: Pre-emergence herbicidal glasshouse test; conditions: 250 g/ha, sprayed after one day cultivation, evaluated after 13 days
Outline: as §1

[5] = test system: Amaranthus pa/meri (AMAPA); test: Pre-emergence herbicidal glasshouse test; conditions: 250 g/ha, sprayed after one day cultivation, evaluated after 13 days
Outline: as §1

[6] = test system: Amaranthus retoflexus (AMARE); test: Post-emergence herbicidal glasshouse test; conditions: 250 g/ha, sprayed after 8 days cultivation, evaluated after 13 days
Outline: as §1

[7] = test system: Setaria faberi (SETFA); test: Post-emergence herbicidal glasshouse test; conditions: 250 g/ha, sprayed after 8 days cultivation, evaluated after 13 days
Outline: as §1

[8] = test system: Ipomoea hederacea (IPOHE); test: Post-emergence herbicidal glasshouse test; conditions: 250 g/ha, sprayed after 8 days cultivation, evaluated after 13 days
Outline: as §1

[9] = test system: Echinochloa crus-gali (ECHCG); test: Post-emergence herbicidal glasshouse test; conditions: 250 g/ha, sprayed after 8 days cultivation, evaluated after 13 days
Outline: as §1

[10] = test system: Amaranthus pa/meri (AMAPA); test: Post-emergence herbicidal glasshouse test; conditions: 250 g/ha, sprayed after 8 days cultivation, evaluated after 13 days
Outline: as §1

Compound | percentage damage caused to the plant, AMARE [1] | percentage damage caused to the plant, SETFA [2] | percentage damage caused to the plant, IPOHE [3] | percentage damage caused to the plant, ECHCG [4] | percentage damage caused to the plant, AMAPA [5] | percentage damage caused to the plant, AMARE [6] | percentage damage caused to the plant, SETFA [7] | percentage damage caused to the plant, IPOHE [8] | percentage damage caused to the plant, ECHCG [9] | percentage damage caused to the plant, AMAPA [10]
CC(=O)CCc1nc(C(F)(F)F)cn1Cc1ncc(Cl)cn1 [Compound 1.027] | 4 (4=61-80%) | 1 (1=0-20%) | 1 (1=0-20%) | 1 (1=0-20%) | 1 (1=0-20%) | 2 (2=21-40%) | 1 (1=0-20%) | 2 (2=21-40%) | 1 (1=0-20%) | 2 (2=21-40%)
FC(F)c1ccn(CCc2nc(C(F)(F)F)cn2Cc2ncc(Cl)cn2)n1 [Compound 1.032] | 5 (5=81-100%) | 5 (5=81-100%) | 5 (5=81-100%) | 5 (5=81-100%) | 5 (5=81-100%) | 5 (5=81-100%) | 3 (3=41-60%) | 4 (4=61-80%) | 3 (3=41-60%) | 4 (4=61-80%)
FC(F)(F)c1cn(Cc2ncc(Cl)cn2)c(CCn2ccc(C(F)(F)F)n2)n1 [Compound 1.033] | 5 (5=81-100%) | 4 (4=61-80%) | 5 (5=81-100%) | 3 (3=41-60%) | 5 (5=81-100%) | 4 (4=61-80%) | 3 (3=41-60%) | 4 (4=61-80%) | 3 (3=41-60%) | 3 (3=41-60%)
CCOCCc1nc(C(F)(F)F)cn1Cc1ncc(Cl)cn1 [Compound 1.038] | 5 (5=81-100%) | 5 (5=81-100%) | 5 (5=81-100%) | 5 (5=81-100%) | 5 (5=81-100%) | 4 (4=61-80%) | 3 (3=41-60%) | 4 (4=61-80%) | 3 (3=41-60%) | 3 (3=41-60%)
CCOCc1nc(C(F)(F)F)cn1Cc1ncc(Cl)cn1 [Compound 1.039] | 4 (4=61-80%) | 2 (2=21-40%) | 2 (2=21-40%) | 1 (1=0-20%) | 3 (3=41-60%) | 2 (2=21-40%) | 1 (1=0-20%) | 2 (2=21-40%) | 1 (1=0-20%) | 2 (2=21-40%)
CS(=O)(=O)CCc1nc(C(F)(F)F)cn1Cc1ncc(Cl)cn1 [Compound 1.048] | 5 (5=81-100%) | 1 (1=0-20%) | 5 (5=81-100%) | 1 (1=0-20%) | 4 (4=61-80%) | 4 (4=61-80%) | 1 (1=0-20%) | 4 (4=61-80%) | 1 (1=0-20%) | 4 (4=61-80%)
CCCCc1nc(C(F)F)cn1Cc1ncc(Cl)cc1F [Compound 1.054, 2-[[2-butyl-4-(difluoromethyl)imidazol-1-yl]methyl]-5-chloro-3-fluoro-pyridine] | 3 (3=41-60%) | 1 (1=0-20%) | 1 (1=0-20%) | 1 (1=0-20%) | 4 (4=61-80%) | 3 (3=41-60%) | 1 (1=0-20%) | 2 (2=21-40%) | 1 (1=0-20%) | 2 (2=21-40%)
N#CC1(c2nc(C(F)(F)F)cn2Cc2ncc(Cl)cn2)CC1 [Compound 1.060] | 2 (2=21-40%) | 1 (1=0-20%) | 3 (3=41-60%) | 1 (1=0-20%) | 2 (2=21-40%) | 2 (2=21-40%) | 1 (1=0-20%) | 2 (2=21-40%) | 1 (1=0-20%) | 2 (2=21-40%)
CC(C)(C#N)Cc1nc(C(F)(F)F)cn1Cc1ncc(Cl)cn1 [Compound 1.061] | 3 (3=41-60%) | 1 (1=0-20%) | 4 (4=61-80%) | 1 (1=0-20%) | 3 (3=41-60%) | 4 (4=61-80%) | 1 (1=0-20%) | 4 (4=61-80%) | 1 (1=0-20%) | 3 (3=41-60%)
CC(C)(C#N)CCc1nc(C(F)(F)F)cn1Cc1ncc(Cl)cn1 [Compound 1.062] | 5 (5=81-100%) | 4 (4=61-80%) | 5 (5=81-100%) | 4 (4=61-80%) | 5 (5=81-100%) | 2 (2=21-40%) | 2 (2=21-40%) | 3 (3=41-60%) | 1 (1=0-20%) | 2 (2=21-40%)
N#CC1(c2nc(C(F)(F)F)cn2Cc2ncc(Cl)cc2F)CC1 [Compound 1.069] | 5 (5=81-100%) | 1 (1=0-20%) | 4 (4=61-80%) | 1 (1=0-20%) | 4 (4=61-80%) | 4 (4=61-80%) | 1 (1=0-20%) | 4 (4=61-80%) | 1 (1=0-20%) | 4 (4=61-80%)
FC(F)c1nc(C(F)(F)F)cn1Cc1ncc(Cl)cn1 [Compound 1.070, 5-chloro-2-[[2-(difluoromethyl)-4-(trifluoromethyl)imidazol-1-yl]methyl]pyrimidine] | 5 (5=81-100%) | 1 (1=0-20%) | 3 (3=41-60%) | 1 (1=0-20%) | 5 (5=81-100%) | 1 (1=0-20%) | 1 (1=0-20%) | 2 (2=21-40%) | 1 (1=0-20%) | 1 (1=0-20%)
FC(F)(F)c1cn(Cc2ncc(Cl)cn2)c(CCl)n1 [Compound 1.071, 5-chloro-2-[[2-(chloromethyl)-4-(trifluoromethyl)imidazol-1-yl]methyl]pyrimidine] | 3 (3=41-60%) | 1 (1=0-20%) | 1 (1=0-20%) | 1 (1=0-20%) | 2 (2=21-40%) | 1 (1=0-20%) | 1 (1=0-20%) | 1 (1=0-20%) | 1 (1=0-20%) | 1 (1=0-20%)
N#Cc1cn(Cc2ncc(Cl)cn2)c(CC2CCOC2)n1 (centres unmarked) [Compound 1.073, 1-[(5-chloropyrimidin-2-yl)methyl]-2-(tetrahydrofuran-3-ylmethyl)imidazole-4-carbonitrile] | 2 (2=21-40%) | 1 (1=0-20%) | 2 (2=21-40%) | 1 (1=0-20%) | 2 (2=21-40%) | 2 (2=21-40%) | 1 (1=0-20%) | 3 (3=41-60%) | 1 (1=0-20%) | 2 (2=21-40%)
